Test results taken from patent US7022697B2, “4-(Oxadiazol-3-yl)-1,4-diazabicyclo[3.2.2]-nonane derivatives, preparation and therapeutic use thereof” (Sanofi-aventis, priority 2001, dated 2006).
Where a name gives a salt, the structure may show the parent alone.

Compound	melting point
C1CNC(c2nc(N3CCN4CCC3CC4)no2)CN1 (stereo not drawn) (as salt: HBr)	247 to 248 °C
c1ccc2c(-c3nc(N4CCN5CCC4CC5)no3)cccc2c1 (as salt: HBr)	256 to 258 °C

Now from value to compound:

melting point	Compound
249 to 251 °C	c1coc(-c2nc(N3CCN4CCC3CC4)no2)c1 (as salt: HBr)
260 to 264 °C	c1cncc(-c2nc(N3CCN4CCC3CC4)no2)c1 (as salt: HBr)
258 to 260 °C	c1ccc2sc(-c3nc(N4CCN5CCC4CC5)no3)cc2c1 (as salt: HBr)
269 to 272 °C	c1cc(-c2nc(N3CCN4CCC3CC4)no2)ccn1 (as salt: HBr)
